For data set [1] the following is noted: water and normal saline at 20° C.; cited from earlier work.
Data set [2] can be described thus: Solubility of granisetron base in penetration enhancers. The settings on record: thermodynamic from solid. The class given is physicochemical. The method, then: The incorporation of granisetron base in various penetration enhancers and solvents was determined by incrementally adding small amounts of the drug to about 100 ml of liquid penetration enhancer, and agitating the liquid mixture until the drug was no longer incorporated (i.e., saturation) to provide an apparently saturated liquid mixture at an ambient room temperature in the range of about 20 to about 25° C. Each of the saturated liquid mixtures was agitated by inverting for about 24 hours at ambient room temperature, the solution was centrifuged and its supernatant was diluted in HPLC mobile phase and assayed by the HPLC method as described in Example 2.

The conditions of data set [3]: typical oral dose of about 1 to about 2 mg twice daily; cited from earlier work.

Counter-ions that a name gives are not always drawn.

Turning to `CN1C2CCCC1CC(NC(=O)c1nn(C)c3ccccc13)C2` (centres unmarked) [Granisetron hydrochloride], in data set [1], the solubility (as a rule, the concentration that dissolves in the medium under given conditions) is “soluble in water and normal saline”.
For `CN1C2CCCC1CC(NC(=O)c1nn(C)c3ccccc13)C2` (centres unmarked) [Granisetron], the solubility at 24 h is 5.46 µg/mL in data set [2] (oil or lipid, in Isopropyl myristate, about 20 to about 25° C.); 41.2 µg/mL in data set [2] (organic solvent or mixture, in BRIJ ® 30, about 20 to about 25° C.); 7.17 µg/mL in data set [2] (organic solvent or mixture, in DDAIP (free base), about 20 to about 25° C.); 86.6 µg/mL in data set [2] (organic solvent or mixture, in DGME (transcutol), about 20 to about 25° C.); 8.59 µg/mL in data set [2] (organic solvent or mixture, in Limonene, about 20 to about 25° C.); 196 µg/mL in data set [2] (organic solvent or mixture, in NMP, about 20 to about 25° C.). Also, the solubility at 24 h in data set [2] (organic solvent or mixture, in PEG-400, ambient room temperature about 20 to about 25° C.) is 45.7 µg/mL; in data set [2] (organic solvent or mixture, in Propylene glycol, about 20 to about 25° C.), 31.7 µg/mL; in data set [2] (organic solvent or mixture, in SPAN ® 20, about 20 to about 25° C.), 32.9 µg/mL. Besides, the elimination half-life result in data set [3] is “about 7 hours”.
